Test results from patent US20220409620A1, “REDUCING IMMUNOGENICITY TO PEGLOTICASE” (Horizon Pharma Rheumatology LLC, priority 2016, published 2022).
Read-outs that look alike come from different tables or passages of the source.

How the values were obtained:
[1] = system: patients with refractory chronic gout; experiment: Prior Phase 3 / pre-marketing pegloticase monotherapy trials (C0405 and C0406): response, infusion reactions, antibodies, PK; assay type: in vivo, human
Description: Improvements were more rapid in patients who received pegloticase 8 mg every 2 weeks compared to every 4 weeks and met the outcomes data of complete resolution of at least 1 tophus with no new or progressive tophi as assessed by blinded assessment of digital photographs of target tophi.
During the second 3 months of treatment, a lower proportion of pegloticase-treated patients experienced flares than patients receiving placebo. The incidence of flares during this period was lowest in the group receiving pegloticase 8 mg every 2 weeks than in the group who received pegloticase 8 mg every 4 weeks, as was the incidence of infusion-related reactions (26% with biweekly dosing vs. 40% with the every-4-week dosing regimen). Both infusion reactions (IRs) and gout flares were least common in patients with sustained urate-lowering responses to treatment and those who received bi-weekly treatment. In most pegloticase-treated patients with IRs, a loss of response to pegloticase (return to SUA >6 mg/dL) preceded the time of the first IR ( 20/21; 95%).
A relationship between the loss of urate-lowering efficacy, incidence of IRs, and high-titer antibody formation was identified in a post-hoc analysis of the pooled data from the Phase 3 studies. […] In one study, 69 (41%) of 169 patients receiving pegloticase developed high titer anti-pegloticase antibodies and subsequently lost response to the drug. In a second study, only 1 of 52 participants with high antibody titers maintained a response to pegloticase (serum urate <6 mg/dL). In addition, 60% participants with high titers developed IR. Anti-pegloticase antibodies were largely directed to the polyethylene glycol (PEG) portion of the molecule and altered the pharmacokinetic clearance of pegloticase, resulting in inhibition of SUA lowering activity. […] In addition, 31 of 52 (60%) patients with titers exceeding 1:2430 developed IRs. […] By preventing the formation of anti-pegloticase antibodies, a tolerizing dose regimen should prevent loss of response to the drug and decrease the incidence of IRs associated with it.
An AE that was not an unexpected AE was an infusion reaction and rarely anaphylaxis. Safety assessments in this study include an evaluation of the frequency and severity of IRs and anaphylaxis. During pre-marketing controlled clinical trials, infusion reactions were reported in 26% of patients treated with pegloticase 8 mg every 2 weeks. During pre-marketing controlled clinical trials, anaphylaxis was reported with a frequency of 6.5% of patients treated with pegloticase. For the purposes of this study, these events shall be defined as follows: […]
Methods: In the MIRROR OL trial, MTX (15 mg/week) was given orally 4 weeks prior to the first pegloticase dose and continued weekly, in combination with pegloticase 8 mg given intravenously every 2 weeks, for a treatment duration of up to 52 weeks. Pre-infusion samples were collected to measure MTX-PGs 1 to 5 in red blood cells at day 1, week 4, 8, 22, 24 and 36. […] Pegloticase concentrations in serum was measured using a validated enzymatic/fluorescence assay. The limit of quantification is 0.6 μg/mL. Anti-pegloticase/PEG IgG antibodies (ADA) were measured using a validated enzyme linked immunosorbent assay (ELISA). The analysis of MTX Polyglutamates was conducted by Exagen. The impact of MTX on pegloticase PK was evaluated by two methods: (1) Comparing pegloticase exposures (median Cmax and Cmin across visits) with MTX from the MIRROR OL trial to the observed levels in historical monotherapy Phase 3 studies (C0405 and C0406) (Lipsky et al., Arthritis Res Ther 16(2), 2014; Sundy et al., JAMA 306(7), 2011). Overlaying observed pegloticase concentrations with MTX against the 90% prediction band of pegloticase concentrations following monotherapy based on the population PK model from the Phase 3 data (Yue et al., ASCPT. Atlanta, 2010).

patients = conditions: cited from earlier work

Compound	Cmax, Median (Q1, Q3) ([1]; BQL: below 0.6 μg/mL)	Cmin, Median (Q1, Q3) ([1]; BQL: below 0.6 μg/mL)	Cmax BQL, % ([1]; Quantitation Limit 0.6 μg/mL) [%]	Cmax BQL, n/N ([1]; Quantitation Limit 0.6 μg/mL)	Cmin BQL, % ([1]; Quantitation Limit 0.6 μg/mL) [%]	Cmin BQL, n/N ([1]; Quantitation Limit 0.6 μg/mL)	Increased susceptibility to infection (patients; RA) [%]	Leukopenia (patients; RA) [%]	Nausea and vomiting (patients; RA) [%]	Increased susceptibility to infection (patients; renal transplant) [%]	Leukopenia (patients; renal transplant) [%]	neoplasia (lymphoma) (patients; renal transplant) [%]	neoplasia (other than lymphoma) (patients; renal transplant) [%]
pegloticase	1.51 (BQL, 2.48) μg/mL	BQL (BQL, BQL)	29	25/85	77	63/82	–	–	–	–	–	–	–
CN(Cc1cnc2nc(N)nc(N)c2n1)c1ccc(C(=O)N[C@@H](CCC(=O)O)C(=O)O)cc1 [MTX, methotrexate]	–	–	–	–	–	–	< 1	28	12	20	> 50	0.5	3
